The values that follow are results of earlier work, collected in patent US11129815B2, “Solid dispersions comprising tacrolimus” (Veloxis Pharmaceuticals A/S, priority 2003, dated 2021).

Molecules are shown by their SMILES.

Assay in data set [1]: not given
This is another data set of the same source.

By bioavailability is commonly meant dose-corrected exposure relative to a reference, in per cent. Consider `C=CC[C@@H]1/C=C(\C)C[C@H](C)C[C@H](OC)[C@H]2O[C@@](O)(C(=O)C(=O)N3CCCC[C@H]3C(=O)O[C@H](/C(C)=C/[C@@H]3CC[C@@H](O)[C@H](OC)C3)[C@H](C)[C@@H](O)CC1=O)[C@H](C)C[C@@H]2OC` [Tacrolimus], for which, where the note is “chloroform”, the solubility in chloroform entry is recorded as “very soluble”. Further, under “ethanol”, the solubility in ethanol entry was “freely soluble”. Under “methanol”, the solubility in methanol result is “very soluble”. In addition, the solubility in water entry (water) is given as “practically insoluble”. Moreover, in data set [1] (after oral administration), the bioavailability was ≤ 20%. Further, the “mean time-to-peak concentration (tmax)” value in data set [1] (oral administration, healthy subjects or kidney or liver transplanted patients) is 1 to 2 h.
